Laboratory results from patent US6737383B1, “Herbicidal oxadiazolidines” (priority 1999, dated 2004).

How the values were obtained:
wheat = assay: Test B pre/postemergence wheat; format: in vivo, Triticum aestivum; settings: for Wheat plant response rating: scale of 0 to 10 where 0 is no effect and 10 is complete control
Outline: (§1)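 Response is a visual 0-to-10 score relative to untreated plants, where 0 means no effect and 10 means complete control, taken twelve to sixteen days after application. Treatments went onto soil at planting and onto foliage of 1- to 4-leaf plants, using a surfactant-containing non-phytotoxic solvent.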

bamyardgrass = assay: Test B flood test barnyardgrass; format: in vivo, Echinochloa crus-galli
Outline: (§2)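 Each value is a visual injury score relative to controls, with 10 meaning complete control and 0 no effect. Evaluation took place twelve to sixteen days after the 2-leaf-stage plants were treated and kept in the greenhouse.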

smallflower flatsedge = assay: Test B flood test smallflower flatsedge; format: in vivo, Cyperus difformis
Outline: as §2

morningglory = assay: Test B pre/postemergence morningglory; format: in vivo, Ipomoea hederacea; settings: for Morningglory plant response rating: scale of 0 to 10 where 0 is no effect and 10 is complete control
Outline: as §1

pigweed = assay: Test B pre/postemergence pigweed; format: in vivo, Amaranthus retroflexus; settings: for Redroot pigweed plant response rating: scale of 0 to 10 where 0 is no effect and 10 is complete control
Outline: as §1

duck salad = assay: Test B flood test duck salad; format: in vivo, Heteranthera limosa
Outline: as §2

cocklebur = assay: Test B pre/postemergence cocklebur; format: in vivo, Xanthium strumarium; settings: for Cocklebur plant response rating: scale of 0 to 10 where 0 is no effect and 10 is complete control
Outline: as §1

crabgrass = assay: Test B pre/postemergence crabgrass; format: in vivo, Digitaria sanguinalis; settings: for Crabgrass plant response rating: scale of 0 to 10 where 0 is no effect and 10 is complete control
Outline: as §1

blackgrass = assay: Test B pre/postemergence blackgrass; format: in vivo, Alopecurus myosuroides; settings: for Blackgrass plant response rating: scale of 0 to 10 where 0 is no effect and 10 is complete control
Outline: as §1

soybean = assay: Test B pre/postemergence soybean; format: in vivo, Glycine max; settings: for Soybean plant response rating: scale of 0 to 10 where 0 is no effect and 10 is complete control
Outline: as §1

surinam grass = assay: Test B pre/postemergence surinam grass; format: in vivo, Brachiaria decumbens; settings: for B. signalgrass plant response rating: scale of 0 to 10 where 0 is no effect and 10 is complete control
Outline: as §1

corn = assay: Test B pre/postemergence corn; format: in vivo, Zea mays; settings: for Corn plant response rating: scale of 0 to 10 where 0 is no effect and 10 is complete control
Outline: as §1

giant foxtail = assay: Test B pre/postemergence giant foxtail; format: in vivo, Setaria faberii; settings: for Giant foxtail plant response rating: scale of 0 to 10 where 0 is no effect and 10 is complete control
Outline: as §1

wild oat = assay: Test B pre/postemergence wild oat; format: in vivo, Avena fatua; settings: for Wild oats plant response rating: scale of 0 to 10 where 0 is no effect and 10 is complete control
Outline: as §1

rape = assay: Test B pre/postemergence rape; format: in vivo, Brassica napus; settings: for Rape plant response rating: scale of 0 to 10 where 0 is no effect and 10 is complete control
Outline: as §1

bedstraw = assay: Test B pre/postemergence bedstraw; format: in vivo, Galium aparine; settings: for Bedstraw plant response rating: Rate 500 g/ha, scale of 0 to 10 where 0 is no effect and 10 is complete control
Outline: as §1

purple nutsedge = assay: Test B pre/postemergence purple nutsedge; format: in vivo, Cyperus rotundus; settings: for Nutsedge plant response rating: scale of 0 to 10 where 0 is no effect and 10 is complete control
Outline: as §1

velvetleaf = assay: Test B pre/postemergence velvetleaf; format: in vivo, Abutilon theophrasti; settings: for Velvetleaf plant response rating: scale of 0 to 10 where 0 is no effect and 10 is complete control
Outline: as §1

sugar beet = assay: Test B pre/postemergence sugar beet; format: in vivo, Beta vulgaris; settings: for Sugarbeets plant response rating: scale of 0 to 10 where 0 is no effect and 10 is complete control
Outline: as §1

[1] = Postemergence, Rate 250 g/ha, scale 0 to 10, 0 is no effect, 10 is complete control
[2] = Preemergence, Rate 62 g/ha, scale 0 to 10 (0 no effect, 10 complete control)
[3] = Rate 62 g/ha, flood test species, Pre-emergence, visual evaluation after twelve to sixteen days
[4] = Rate 125 g/ha, under heading Pre-emergence, flood test species, visual evaluation after twelve to sixteen days
[5] = Rate 250 g/ha, Pre-emergence, flood-test species, scale 0 to 10, 0 is no effect, 10 is complete control
[6] = Rate 500 g/ha, Pre-emergence, flood test species, scale 0 to 10 (0 no effect, 10 complete control)
[7] = Postemergence, Rate 125 g/ha, scale 0 to 10, 0 is no effect, 10 is complete control

## CCCCCCn1c(=O)on(C(=O)N(c2ccc(F)cc2)C(C)C)c1=O [Compound 389]
wheat; [1]
  Plant response rating, Wheat: 0
wheat; Postemergence, Rate 500 g/ha
  Wheat plant response rating: 0
wheat; [2]
  Plant response rating, Wheat: 0
wheat; Preemergence, Rate 125 g/ha
  Wheat plant response rating (0 to 10 scale): 0
wheat; Preemergence, Rate 250 g/ha
  Wheat plant response rating: 0
wheat; Preemergence, Rate 500 g/ha
  Wheat plant response rating: 0
wheat; Rate 62 g/ha, Postemergence
  Wheat plant response rating: 0
bamyardgrass; [3]
  Plant response rating, Barnyardgrass (0 to 10 scale, 0 is no effect, 10 is complete control): 0
bamyardgrass; [4]
  Barnyardgrass plant response rating (0 to 10 scale, 0 is no effect, 10 is complete control): 0
bamyardgrass; [5]
  Barnyardgrass plant response rating: 0
bamyardgrass; [6]
  Barnyardgrass plant response rating: 0
Smallflower flatsedge; [3]
  Plant response rating, S. Flatsedge (0 to 10 scale, 0 is no effect, 10 is complete control): 0
Smallflower flatsedge; [4]
  S. Flatsedge plant response rating (0 to 10 scale, 0 is no effect, 10 is complete control): 0
Smallflower flatsedge; [5]
  S. Flatsedge plant response rating: 0
Smallflower flatsedge; [6]
  S. Flatsedge plant response rating: 0
morningglory; [1]
  Plant response rating, Morningglory: 8
morningglory; Postemergence, Rate 500 g/ha
  Morningglory plant response rating: 10
morningglory; [2]
  Plant response rating, Morningglory: 0
morningglory; Preemergence, Rate 125 g/ha
  Morningglory plant response rating (0 to 10 scale): 0
morningglory; Preemergence, Rate 250 g/ha
  Morningglory plant response rating: 0
morningglory; Preemergence, Rate 500 g/ha
  Morningglory plant response rating: 1
morningglory; Rate 62 g/ha, Postemergence
  Morningglory plant response rating: 2
pigweed; [1]
  Plant response rating, Redroot pigweed: 0
pigweed; Postemergence, Rate 500 g/ha
  Redroot pigweed plant response rating: 7
pigweed; [2]
  Plant response rating, Redroot pigweed: 0
pigweed; Preemergence, Rate 125 g/ha
  Redroot pigweed plant response rating (0 to 10 scale): 0
pigweed; Preemergence, Rate 250 g/ha
  Redroot pigweed plant response rating: 4
pigweed; Preemergence, Rate 500 g/ha
  Redroot pigweed plant response rating: 10
pigweed; Rate 62 g/ha, Postemergence
  Redroot pigweed plant response rating: 0
Duck salad; [3]
  Plant response rating, Ducksalad (0 to 10 scale, 0 is no effect, 10 is complete control): 0
Duck salad; [4]
  Ducksalad plant response rating (0 to 10 scale, 0 is no effect, 10 is complete control): 0
Duck salad; [5]
  Ducksalad plant response rating: 0
Duck salad; [6]
  Ducksalad plant response rating: 3
cocklebur; [7]
  Plant response rating, Cocklebur: 0
cocklebur; [1]
  Plant response rating, Cocklebur: 0
cocklebur; Postemergence, Rate 500 g/ha
  Cocklebur plant response rating: 0
cocklebur; [2]
  Plant response rating, Cocklebur: 0
cocklebur; Preemergence, Rate 125 g/ha
  Cocklebur plant response rating (0 to 10 scale): 0
cocklebur; Preemergence, Rate 250 g/ha
  Cocklebur plant response rating: 0
cocklebur; Preemergence, Rate 500 g/ha
  Cocklebur plant response rating: 0
cocklebur; Rate 62 g/ha, Postemergence
  Cocklebur plant response rating: 0
crabgrass; [7]
  Plant response rating, Crabgrass: 3
crabgrass; [1]
  Plant response rating, Crabgrass: 4
crabgrass; Postemergence, Rate 500 g/ha
  Crabgrass plant response rating: 7
crabgrass; [2]
  Plant response rating, Crabgrass: 1
crabgrass; Preemergence, Rate 125 g/ha
  Crabgrass plant response rating (0 to 10 scale): 2
crabgrass; Preemergence, Rate 250 g/ha
  Crabgrass plant response rating: 9
crabgrass; Preemergence, Rate 500 g/ha
  Crabgrass plant response rating: 10
crabgrass; Rate 62 g/ha, Postemergence
  Crabgrass plant response rating: 0
blackgrass; [7]
  Plant response rating, Blackgrass: 0
blackgrass; [1]
  Plant response rating, Blackgrass: 6
blackgrass; Postemergence, Rate 500 g/ha
  Blackgrass plant response rating: 6
blackgrass; [2]
  Plant response rating, Blackgrass: 0
blackgrass; Preemergence, Rate 125 g/ha
  Blackgrass plant response rating (0 to 10 scale): 2
blackgrass; Preemergence, Rate 250 g/ha
  Blackgrass plant response rating: 6
blackgrass; Preemergence, Rate 500 g/ha
  Blackgrass plant response rating: 9
blackgrass; Rate 62 g/ha, Postemergence
  Blackgrass plant response rating: 0
soybean; [1]
  Plant response rating, Soybean: 2
soybean; Postemergence, Rate 500 g/ha
  Soybean plant response rating: 3
soybean; [2]
  Plant response rating, Soybean: 0
soybean; Preemergence, Rate 125 g/ha
  Soybean plant response rating (0 to 10 scale): 0
soybean; Preemergence, Rate 250 g/ha
  Soybean plant response rating: 0
soybean; Preemergence, Rate 500 g/ha
  Soybean plant response rating: 3
soybean; Rate 62 g/ha, Postemergence
  Soybean plant response rating: 2
Surinam grass; [7]
  Plant response rating, B. signalgrass: 0
Surinam grass; [1]
  Plant response rating, B. signalgrass: 0
Surinam grass; Postemergence, Rate 500 g/ha
  B. signalgrass plant response rating: 0
Surinam grass; [2]
  Plant response rating, B. signalgrass: 0
Surinam grass; Preemergence, Rate 125 g/ha
  B. signalgrass plant response rating (0 to 10 scale, 0 is no effect, 10 is complete control): 0
Surinam grass; Preemergence, Rate 250 g/ha
  B. signalgrass plant response rating: 0
Surinam grass; Preemergence, Rate 500 g/ha
  B. signalgrass plant response rating: 4
Surinam grass; Rate 62 g/ha, Postemergence
  B. signalgrass plant response rating: 0
corn; [7]
  Plant response rating, Corn: 0
corn; [1]
  Plant response rating, Corn: 0
corn; Postemergence, Rate 500 g/ha
  Corn plant response rating: 0
corn; [2]
  Plant response rating, Corn: 0
corn; Preemergence, Rate 125 g/ha
  Corn plant response rating (0 to 10 scale): 0
corn; Preemergence, Rate 250 g/ha
  Corn plant response rating: 0
corn; Preemergence, Rate 500 g/ha
  Corn plant response rating: 4
corn; Rate 62 g/ha, Postemergence
  Corn plant response rating: 0
Giant foxtail; [7]
  Plant response rating, Giant foxtail: 2
Giant foxtail; [1]
  Plant response rating, Giant foxtail: 7
Giant foxtail; Postemergence, Rate 500 g/ha
  Giant foxtail plant response rating: 8
Giant foxtail; [2]
  Plant response rating, Giant foxtail: 2
Giant foxtail; Preemergence, Rate 125 g/ha
  Giant foxtail plant response rating (0 to 10 scale): 8
Giant foxtail; Preemergence, Rate 250 g/ha
  Giant foxtail plant response rating: 10
Giant foxtail; Preemergence, Rate 500 g/ha
  Giant foxtail plant response rating: 10
Giant foxtail; Rate 62 g/ha, Postemergence
  Giant foxtail plant response rating: 0
Wild oat; [1]
  Plant response rating, Wild oats: 0
Wild oat; Postemergence, Rate 500 g/ha
  Wild oats plant response rating: 0
Wild oat; [2]
  Plant response rating, Wild oats: 0
Wild oat; Preemergence, Rate 125 g/ha
  Wild oats plant response rating (0 to 10 scale): 0
Wild oat; Preemergence, Rate 250 g/ha
  Wild oats plant response rating: 1
Wild oat; Preemergence, Rate 500 g/ha
  Wild oats plant response rating: 4
Wild oat; Rate 62 g/ha, Postemergence
  Wild oats plant response rating: 0
rape; [1]
  Plant response rating, Rape: 2
rape; Postemergence, Rate 500 g/ha
  Rape plant response rating: 4
rape; [2]
  Plant response rating, Rape: 0
rape; Preemergence, Rate 125 g/ha
  Rape plant response rating (0 to 10 scale): 0
rape; Preemergence, Rate 250 g/ha
  Rape plant response rating: 0
rape; Preemergence, Rate 500 g/ha
  Rape plant response rating: 8
bedstraw; [1]
  Plant response rating, Bedstraw: 5
bedstraw; Postemergence
  Bedstraw plant response rating: 7
bedstraw; Preemergence
  Bedstraw plant response rating: 10
Purple nutsedge; [1]
  Plant response rating, Nutsedge: 0
Purple nutsedge; Postemergence, Rate 500 g/ha
  Nutsedge plant response rating: 0
Purple nutsedge; [2]
  Plant response rating, Nutsedge: 0
Purple nutsedge; Preemergence, Rate 125 g/ha
  Nutsedge plant response rating (0 to 10 scale): 0
Purple nutsedge; Preemergence, Rate 250 g/ha
  Nutsedge plant response rating: 0
Purple nutsedge; Preemergence, Rate 500 g/ha
  Nutsedge plant response rating: 0
Purple nutsedge; Rate 62 g/ha, Postemergence
  Nutsedge plant response rating: 0
velvetleaf; [1]
  Plant response rating, Velvetleaf: 0
velvetleaf; Postemergence, Rate 500 g/ha
  Velvetleaf plant response rating: 0
velvetleaf; [2]
  Plant response rating, Velvetleaf: 0
velvetleaf; Preemergence, Rate 125 g/ha
  Velvetleaf plant response rating (0 to 10 scale): 0
velvetleaf; Preemergence, Rate 250 g/ha
  Velvetleaf plant response rating: 0
velvetleaf; Preemergence, Rate 500 g/ha
  Velvetleaf plant response rating: 2
velvetleaf; Rate 62 g/ha, Postemergence
  Velvetleaf plant response rating: 0
Sugar beet; [1]
  Plant response rating, Sugarbeets: 0
Sugar beet; Postemergence, Rate 500 g/ha
  Sugarbeets plant response rating: 0
Sugar beet; [2]
  Plant response rating, Sugarbeets: 0
Sugar beet; Preemergence, Rate 125 g/ha
  Sugarbeets plant response rating (0 to 10 scale): 0
Sugar beet; Preemergence, Rate 250 g/ha
  Sugarbeets plant response rating: 0
Sugar beet; Preemergence, Rate 500 g/ha
  Sugarbeets plant response rating: 4
Sugar beet; Rate 62 g/ha, Postemergence
  Sugarbeets plant response rating: 0
